Results from patent publication US20090169652A1, “Personal Care Compositions” (priority 2007, published 2009).

What was measured:
[1] = test system: MatTek human skin equivalent culture model; assay: collagen expression in MatTek human skin equivalent culture model; assay type: cell-based
skin = assay: clinical study of skin condition; assay type: in vivo; settings: clinical study by applicant
[2] = test system: Xgene human skin equivalent culture model; assay: collagen expression in Xgene human skin equivalent culture model; assay type: cell-based

## CC(=O)C1C(=O)C=C(C)OC1=O (stereo not shown) [SDA, sodium dehydroacetic acid]
[1]
  collagen expression: up-regulated collagen expression
skin
  appearance of fine lines and wrinkles: unexpected improvement in the appearance of fine lines and wrinkles
  skin condition related to reduced oil: expected improvements in skin condition related to reduced oil
[2]
  collagen expression: up-regulated collagen expression
